{"source": "patent US20100267561A1", "about": "“HERBICIDAL PYRIDAZINONE DERIVATIVES” (priority 2007, published 2010)", "assay_in_all_cases": "Test B pre-/postemergence plant response", "format_in_all_cases": "in vivo", "key": {"soybean (Glycine max)": {"system": "soybean (Glycine max)", "method_in_brief": "(§1)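 Preemergence and postemergence (plants 2-18 cm, 1- to 4-leaf stage) applications used test chemicals in a non-phytotoxic solvent with surfactant. Plants were held in a greenhouse 13 to 15 days, then rated visually against controls on a 0-100 scale (0 no effect, 100 complete control).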"}, "[1]": {"system": "blackgrass (Alopecurus myosuroides)", "conditions": "for Blackgrass plant response rating: 8 g ai/ha", "method_in_brief": "as §1"}, "[2]": {"system": "green foxtail (Setaria viridis)", "method_in_brief": "as §1"}, "[3]": {"system": "surinam grass (Brachiaria decumbens)", "method_in_brief": "as §1"}, "[4]": {"system": "common (oilseed) sunflower (Helianthus annuus)", "conditions": "Preemergence; for Sunflower plant response rating: scale 0 to 100", "method_in_brief": "as §1"}, "[5]": {"system": "morningglory (Ipomoea coccinea)", "method_in_brief": "as §1"}, "kochia (Kochia scoparia)": {"system": "kochia (Kochia scoparia)", "method_in_brief": "as §1"}, "[6]": {"system": "wheat (Triticum aestivum)", "method_in_brief": "as §1"}, "[7]": {"system": "large crabgrass (Digitaria sanguinalis)", "method_in_brief": "as §1"}, "[8]": {"system": "lambsquarters (Chenopodium album)", "method_in_brief": "as §1"}, "wild oat (Avena fatua)": {"system": "wild oat (Avena fatua)", "method_in_brief": "as §1"}, "[9]": {"system": "common ragweed (Ambrosia elation)", "method_in_brief": "as §1"}, "[10]": {"system": "goosegrass (Eleusine indica)", "method_in_brief": "as §1"}, "[11]": {"system": "eastern black (E.B.) nightshade (Solanum ptycanthum)", "conditions": "Preemergence; for Nightshade, E. B. plant response rating: scale 0 to 100", "method_in_brief": "as §1"}, "[12]": {"conditions": "8 g ai/ha, postemergence, 0-100 scale"}, "[13]": {"conditions": "Postemergence, 16 g ai/ha, scale 0 to 100"}, "[14]": {"conditions": "Postemergence, 31 g ai/ha, scale 0 to 100"}, "[15]": {"conditions": "Postemergence, 62 g ai/ha, scale 0 to 100, 0 no effect, 100 complete control"}, "[16]": {"conditions": "Preemergence, 62 g ai/ha, 0 to 100 scale, 0 no effect, 100 complete control"}, "[17]": {"conditions": "Preemergence, 8 g ai/ha, scale 0 to 100"}, "[18]": {"conditions": "Preemergence, 16 g ai/ha, scale 0 to 100"}, "[19]": {"conditions": "Preemergence, 31 g ai/ha, scale 0 to 100 (0 no effect, 100 complete control)"}, "[20]": {"conditions": "31 g ai/ha, scale 0 to 100 (0 no effect, 100 complete control)"}, "[21]": {"conditions": "62 g ai/ha, 0 to 100 scale, 0 no effect, 100 complete control"}}, "data": [{"smiles": "CCCC(=O)Oc1cnn(C)c(=O)c1-n1nc(-c2ccc(Cl)cc2)cc1C", "note": "[Compound 56]", "values": [{"measurement": "Soybean plant response rating", "setting": "soybean (Glycine max); [12]", "result": 0}, {"measurement": "Plant response rating, Soybean", "setting": "soybean (Glycine max); [13]", "result": 0}, {"measurement": "Plant response rating, Soybean", "setting": "soybean (Glycine max); [14]", "result": 0}, {"measurement": "Plant response rating, Soybean", "setting": "soybean (Glycine max); [15]", "result": 0}, {"measurement": "Plant response rating, Soybean", "setting": "soybean (Glycine max); [16]", "result": 0}, {"measurement": "Soybean plant response rating", "setting": "soybean (Glycine max); [17]", "result": 0}, {"measurement": "Soybean plant response rating", "setting": "soybean (Glycine max); [18]", "result": 0}, {"measurement": "Blackgrass plant response rating", "setting": "[1]; postemergence, 0-100 scale", "result": 0}, {"measurement": "Plant response rating, Blackgrass", "setting": "[1]; [13]", "result": 65}, {"measurement": "Plant response rating, Blackgrass", "setting": "[1]; [14]", "result": 95}, {"measurement": "Plant response rating, Blackgrass", "setting": "[1]; [15]", "result": 98}, {"measurement": "Plant response rating, Blackgrass", "setting": "[1]; Preemergence, 16 g ai/ha, scale 0 to 100 (0 no effect, 100 complete control)", "result": 60}, {"measurement": "Plant response rating, Blackgrass", "setting": "[1]; [19]", "result": 98}, {"measurement": "Plant response rating, Blackgrass", "setting": "[1]; [16]", "result": 98}, {"measurement": "Blackgrass plant response rating", "setting": "[1]; Preemergence, scale 0 to 100", "result": 40}, {"measurement": "Foxtail, Green plant response rating", "setting": "[2]; [12]", "result": 50}, {"measurement": "Plant response rating, Foxtail, Green", "setting": "[2]; [13]", "result": 90}, {"measurement": "Plant response rating, Foxtail, Green", "setting": "[2]; [14]", "result": 90}, {"measurement": "Plant response rating, Foxtail, Green", "setting": "[2]; [15]", "result": 100}, {"measurement": "Plant response rating, Foxtail, Green", "setting": "[2]; [19]", "result": 100}, {"measurement": "Plant response rating, Foxtail, Green", "setting": "[2]; [16]", "result": 100}, {"measurement": "Foxtail, Green plant response rating", "setting": "[2]; [17]", "result": 65}, {"measurement": "Foxtail, Green plant response rating", "setting": "[2]; [18]", "result": 65}, {"measurement": "Surinam Grass plant response rating", "setting": "[3]; [12]", "result": 70}, {"measurement": "Plant response rating, Surinam Grass", "setting": "[3]; [13]", "result": 75}, {"measurement": "Plant response rating, Surinam Grass", "setting": "[3]; [14]", "result": 98}, {"measurement": "Plant response rating, Surinam Grass", "setting": "[3]; [15]", "result": 100}, {"measurement": "Plant response rating, Surinam Grass", "setting": "[3]; [19]", "result": 100}, {"measurement": "Plant response rating, Surinam Grass", "setting": "[3]; [16]", "result": 100}, {"measurement": "Surinam Grass plant response rating", "setting": "[3]; [17]", "result": 75}, {"measurement": "Surinam Grass plant response rating", "setting": "[3]; [18]", "result": 90}, {"measurement": "Plant response rating, Sunflower", "setting": "[4]; [20]", "result": 0}, {"measurement": "Plant response rating, Sunflower", "setting": "[4]; [21]", "result": 0}, {"measurement": "Sunflower plant response rating", "setting": "[4]; 8 g ai/ha", "result": 0}, {"measurement": "Sunflower plant response rating", "setting": "[4]; 16 g ai/ha", "result": 0}, {"measurement": "Morningglory plant response rating", "setting": "[5]; [12]", "result": 0}, {"measurement": "Plant response rating, Morningglory", "setting": "[5]; [13]", "result": 0}, {"measurement": "Plant response rating, Morningglory", "setting": "[5]; [14]", "result": 0}, {"measurement": "Plant response rating, Morningglory", "setting": "[5]; [15]", "result": 0}, {"measurement": "Plant response rating, Morningglory", "setting": "[5]; [19]", "result": 0}, {"measurement": "Plant response rating, Morningglory", "setting": "[5]; [16]", "result": 0}, {"measurement": "Morningglory plant response rating", "setting": "[5]; [17]", "result": 0}, {"measurement": "Morningglory plant response rating", "setting": "[5]; [18]", "result": 0}, {"measurement": "Kochia plant response rating", "setting": "kochia (Kochia scoparia); [12]", "result": 0}, {"measurement": "Plant response rating, Kochia", "setting": "kochia (Kochia scoparia); [13]", "result": 0}, {"measurement": "Plant response rating, Kochia", "setting": "kochia (Kochia scoparia); [14]", "result": 0}, {"measurement": "Plant response rating, Kochia", "setting": "kochia (Kochia scoparia); [15]", "result": 0}, {"measurement": "Plant response rating, Kochia", "setting": "kochia (Kochia scoparia); [19]", "result": 98}, {"measurement": "Plant response rating, Kochia", "setting": "kochia (Kochia scoparia); [16]", "result": 100}, {"measurement": "Kochia plant response rating", "setting": "kochia (Kochia scoparia); [17]", "result": 0}, {"measurement": "Kochia plant response rating", "setting": "kochia (Kochia scoparia); [18]", "result": 20}, {"measurement": "Wheat plant response rating", "setting": "[6]; [12]", "result": 5}, {"measurement": "Plant response rating, Wheat", "setting": "[6]; [13]", "result": 65}, {"measurement": "Plant response rating, Wheat", "setting": "[6]; [14]", "result": 80}, {"measurement": "Plant response rating, Wheat", "setting": "[6]; [15]", "result": 90}, {"measurement": "Plant response rating, Wheat", "setting": "[6]; [19]", "result": 35}, {"measurement": "Plant response rating, Wheat", "setting": "[6]; [16]", "result": 80}, {"measurement": "Wheat plant response rating", "setting": "[6]; [18]", "result": 10}, {"measurement": "Crabgrass, Large plant response rating", "setting": "[7]; [12]", "result": 65}, {"measurement": "Plant response rating, Crabgrass, Large", "setting": "[7]; [13]", "result": 85}, {"measurement": "Plant response rating, Crabgrass, Large", "setting": "[7]; [14]", "result": 95}, {"measurement": "Plant response rating, Crabgrass, Large", "setting": "[7]; [15]", "result": 100}, {"measurement": "Plant response rating, Crabgrass, Large", "setting": "[7]; [19]", "result": 100}, {"measurement": "Plant response rating, Crabgrass, Large", "setting": "[7]; [16]", "result": 100}, {"measurement": "Crabgrass, Large plant response rating", "setting": "[7]; [17]", "result": 0}, {"measurement": "Crabgrass, Large plant response rating", "setting": "[7]; [18]", "result": 60}, {"measurement": "Lambsquarters plant response rating", "setting": "[8]; [12]", "result": 0}, {"measurement": "Plant response rating, Lambsquarters", "setting": "[8]; [13]", "result": 0}, {"measurement": "Plant response rating, Lambsquarters", "setting": "[8]; [14]", "result": 0}, {"measurement": "Plant response rating, Lambsquarters", "setting": "[8]; [15]", "result": 0}, {"measurement": "Plant response rating, Lambsquarters", "setting": "[8]; [19]", "result": 0}, {"measurement": "Plant response rating, Lambsquarters", "setting": "[8]; [16]", "result": 20}, {"measurement": "Lambsquarters plant response rating", "setting": "[8]; [17]", "result": 0}, {"measurement": "Lambsquarters plant response rating", "setting": "[8]; [18]", "result": 0}, {"measurement": "Oat, Wild plant response rating", "setting": "wild oat (Avena fatua); [12]", "result": 5}, {"measurement": "Plant response rating, Oat, Wild", "setting": "wild oat (Avena fatua); [13]", "result": 85}, {"measurement": "Plant response rating, Oat, Wild", "setting": "wild oat (Avena fatua); [14]", "result": 90}, {"measurement": "Plant response rating, Oat, Wild", "setting": "wild oat (Avena fatua); [15]", "result": 90}, {"measurement": "Plant response rating, Oat, Wild", "setting": "wild oat (Avena fatua); [19]", "result": 60}, {"measurement": "Plant response rating, Oat, Wild", "setting": "wild oat (Avena fatua); [16]", "result": 90}, {"measurement": "Oat, Wild plant response rating", "setting": "wild oat (Avena fatua); [17]", "result": 0}, {"measurement": "Oat, Wild plant response rating", "setting": "wild oat (Avena fatua); [18]", "result": 50}, {"measurement": "Ragweed plant response rating", "setting": "[9]; [12]", "result": 0}, {"measurement": "Plant response rating, Ragweed", "setting": "[9]; [13]", "result": 0}, {"measurement": "Plant response rating, Ragweed", "setting": "[9]; [14]", "result": 0}, {"measurement": "Plant response rating, Ragweed", "setting": "[9]; [15]", "result": 0}, {"measurement": "Plant response rating, Ragweed", "setting": "[9]; [19]", "result": 0}, {"measurement": "Plant response rating, Ragweed", "setting": "[9]; [16]", "result": 0}, {"measurement": "Ragweed plant response rating", "setting": "[9]; [17]", "result": 0}, {"measurement": "Ragweed plant response rating", "setting": "[9]; [18]", "result": 0}, {"measurement": "Goosegrass plant response rating", "setting": "[10]; [12]", "result": 60}, {"measurement": "Plant response rating, Goosegrass", "setting": "[10]; [13]", "result": 65}, {"measurement": "Plant response rating, Goosegrass", "setting": "[10]; [14]", "result": 75}, {"measurement": "Plant response rating, Goosegrass", "setting": "[10]; [15]", "result": 98}, {"measurement": "Plant response rating, Goosegrass", "setting": "[10]; [19]", "result": 98}, {"measurement": "Plant response rating, Goosegrass", "setting": "[10]; [16]", "result": 100}, {"measurement": "Goosegrass plant response rating", "setting": "[10]; [17]", "result": 75}, {"measurement": "Goosegrass plant response rating", "setting": "[10]; [18]", "result": 80}, {"measurement": "Plant response rating, Nightshade, E. B.", "setting": "[11]; [20]", "result": 0}, {"measurement": "Plant response rating, Nightshade, E. B.", "setting": "[11]; [21]", "result": 20}, {"measurement": "Nightshade, E. B. plant response rating", "setting": "[11]; 8 g ai/ha", "result": 0}, {"measurement": "Nightshade, E. B. plant response rating", "setting": "[11]; 16 g ai/ha", "result": 0}]}]}
